Experimental data taken from patent US20220378706A1, “PHARMACEUTICAL COMPOSITION COMPRISING PDE9 INHIBITOR” (Eisai R&D Management Co., Ltd., priority 2017, published 2022).

How the values were obtained:
[1] = target: PDE9 (Homo sapiens, UniProt O76083); details: WO2013/051369, WO2014/163147; cited from earlier work
[2] = High precision QTcF analysis using Holter ECG recording; type: in vivo, human; details: at the Cmax at the highest doses of 800 to 1200 mg, healthy subjects
Experimental: In addition, high precision QTcF analysis using Holter ECG recording was conducted in Parts A, C, and D during Day −1 and Day 1, to allow more rigorous assessments of possible changes in QTcF intervals. A central ECG laboratory was used to extract ECG recordings from the Holter device.

[3] = test system: CSF cGMP; assay: Multiple ascending dose study: CSF cGMP; type: in vivo, human
Experimental: Four sequential cohorts of healthy participants (≥50 years and ≤85 years old) were treated with multiple ascending doses of Compound A up to the maximum tolerated dose (MTD). A total of 6 participants per cohort were randomized to Compound A. Proposed doses of Compound A were:
Compound A was administered orally with 240 milliliter (mL) (8 fluid ounces) of water. […]

[4] = test system: scopolamine-induced memory impairment in rats; assay: Scopolamine-induced memory impairment in rat novel object recognition test; type: in vivo; details: scopolamine 0.7 mg/kg i.p., mean ± SEM
Excerpt: (Effects of Compound a Monomaleate Salt on Scopolamine-Induced Memory Impairment in Rat Novel Object Recognition Test)
The effects of orally administered Compound A monomaleate salt on scopolamine-induced memory impairment in a novel object recognition test in rats was examined.
Six-week-old male Long-Evans rats (Institute for Animal Reproduction) were used in this study. Before test day, rats were placed in each experimental apparatus once a day, on two consecutive days to habituate rats to the test chamber. […]
Following a 2-hour […] interval, a retention trial (T2) was conducted. […] Animal performance in T1 and T2 was recorded with a digital video camera, and the amount of time spent exploring each object was measured by manual stopwatches. […]
In novel object recognition test, the following novel object exploration ratio in T2 is considered as amnesic indexes reflecting the discrimination between the familiar and novel objects. These indexes are calculated according to the following formulas: […]
Data are expressed as the mean±SEM. The difference between the non-scopolamine treated control and scopolamine treated control groups were analyzed using unpaired t test. The effects of Compound A monomaleate salt on novel object exploration ratio in T2 was analyzed by one-way analysis of variance (ANOVA) followed by the Dunnett multiple comparison test. […]

[5] = Day 13, 5 mg QD oral, Parts A and D
[6] = Day 13, 10 mg QD oral, Parts A and D
[7] = Day 13, 25 mg QD oral, Parts A and D
[8] = Day 13, 50 mg QD oral, Parts A and D
[9] = Day 13, 100 mg QD oral, Parts A and D
[10] = Day 13, 200 mg QD oral, Parts A and D
[11] = Day 13, 400 mg QD oral Non-Japanese, Parts A and D

PDE9, sequence (O76083 whole entry): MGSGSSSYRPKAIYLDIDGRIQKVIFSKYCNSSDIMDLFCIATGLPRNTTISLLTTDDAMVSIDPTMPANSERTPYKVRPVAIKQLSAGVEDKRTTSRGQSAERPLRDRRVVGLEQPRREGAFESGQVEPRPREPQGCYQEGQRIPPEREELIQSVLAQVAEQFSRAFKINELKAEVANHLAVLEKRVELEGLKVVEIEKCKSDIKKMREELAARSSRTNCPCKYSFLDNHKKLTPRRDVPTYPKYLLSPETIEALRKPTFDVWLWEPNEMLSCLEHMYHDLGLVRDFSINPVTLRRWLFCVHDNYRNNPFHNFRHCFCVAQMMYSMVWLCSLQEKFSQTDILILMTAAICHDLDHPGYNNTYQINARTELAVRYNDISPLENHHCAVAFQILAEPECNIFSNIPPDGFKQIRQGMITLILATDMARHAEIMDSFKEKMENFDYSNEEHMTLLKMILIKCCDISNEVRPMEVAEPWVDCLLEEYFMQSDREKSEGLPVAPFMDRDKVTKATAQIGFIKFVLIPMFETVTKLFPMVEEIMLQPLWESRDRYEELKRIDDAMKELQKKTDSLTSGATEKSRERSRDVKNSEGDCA

For `COc1ncc(C)c(-c2ccc3c(c2)[nH]c(=O)c2cnn([C@H]4CCOC4)c23)c1C` [Compound A, (S)-7-(2-methoxy-3,5-dimethylpyridin-4-yl)-1-(tetrahydrofuran-3-yl)-1H-pyrazolo[4,3-c]quin olin-4(5H)-one], the PDE9 inhibitory activity [1] is given as “known to have a PDE9 inhibitory activity”, the “upper 90% CI of the ΔΔQTcF” value [2] is given as “less than 10 ms” and the “CSF cGMP % Change from Baseline Mean” value [3, 5] is given as 33.162%. For the same molecule, the “CSF cGMP % Change from Baseline Median” value [3, 5] was 29.954%, the “CSF cGMP Change from Baseline Mean” value [3, 5] was 0.491 µg/L and the “CSF cGMP Change from Baseline Median” value [3, 5] was 0.350 µg/L. The “CSF cGMP Mean” value [3, 5] was 1.964 µg/L, the “CSF cGMP Median” value [3, 5] was 1.730 µg/L and the “CSF cGMP % Change from Baseline Mean” value [3, 6] was 94.222%. The “CSF cGMP % Change from Baseline Median” value [3, 6] was 104.348%, the “CSF cGMP Change from Baseline Mean” value [3, 6] was 1.276 µg/L and the “CSF cGMP Change from Baseline Median” value [3, 6] was 1.390 µg/L. The “CSF cGMP Mean” value [3, 6] was 2.704 µg/L, the “CSF cGMP Median” value [3, 6] was 2.620 µg/L and the “CSF cGMP % Change from Baseline Mean” value [3, 7] was 170.369%. For the same molecule, the “CSF cGMP % Change from Baseline Median” value [3, 7] was 183.494%, the “CSF cGMP Change from Baseline Mean” value [3, 7] was 2.058 µg/L and the “CSF cGMP Change from Baseline Median” value [3, 7] was 1.979 µg/L. The “CSF cGMP Mean” value [3, 7] was 3.283 µg/L, the “CSF cGMP Median” value [3, 7] was 3.225 µg/L and the “CSF cGMP % Change from Baseline Mean” value [3, 8] was 191.445%. For the same molecule, the “CSF cGMP % Change from Baseline Median” value [3, 8] was 189.244%, the “CSF cGMP Change from Baseline Mean” value [3, 8] was 3.750 µg/L and the “CSF cGMP Change from Baseline Median” value [3, 8] was 3.260 µg/L. For the same molecule, the “CSF cGMP Mean” value [3, 8] was 5.778 µg/L, the “CSF cGMP Median” value [3, 8] was 4.870 µg/L and the “CSF cGMP % Change from Baseline Mean” value [3, 9] was 260.350%. The “CSF cGMP % Change from Baseline Median” value [3, 9] was 258.784%, the “CSF cGMP Change from Baseline Mean” value [3, 9] was 4.352 µg/L and the “CSF cGMP Change from Baseline Median” value [3, 9] was 3.960 µg/L. The “CSF cGMP Mean” value [3, 9] was 6.066 µg/L, the “CSF cGMP Median” value [3, 9] was 5.420 µg/L and the “CSF cGMP % Change from Baseline Mean” value [3, 10] was 201.165%. For the same molecule, the “CSF cGMP % Change from Baseline Median” value [3, 10] was 192.932%, the “CSF cGMP Change from Baseline Mean” value [3, 10] was 3.810 µg/L and the “CSF cGMP Change from Baseline Median” value [3, 10] was 3.755 µg/L. For the same molecule, the “CSF cGMP Mean” value [3, 10] was 5.702 µg/L, the “CSF cGMP Median” value [3, 10] was 5.640 µg/L and the “CSF cGMP % Change from Baseline Mean” value [3, 11] was 198.283%. For the same molecule, the “CSF cGMP % Change from Baseline Median” value [3, 11] was 191.646%, the “CSF cGMP Change from Baseline Mean” value [3, 11] was 3.302 µg/L and the “CSF cGMP Change from Baseline Median” value [3, 11] was 2.920 µg/L. The “CSF cGMP Mean” value [3, 11] was 4.945 µg/L, the “CSF cGMP Median” value [3, 11] was 4.370 µg/L and the “CSF cGMP % Change from Baseline Mean” value ([3]; Part C, 50 mg, Day 13) was 229.107%. The “CSF cGMP % Change from Baseline Median” value ([3]; Part C, 50 mg, Day 13) was 218.491%, the “CSF cGMP Change from Baseline Mean” value ([3]; Part C, 50 mg, Day 13) was 3.206 µg/L and the “CSF cGMP Change from Baseline Median” value ([3]; Part C, 50 mg, Day 13) was 3.065 µg/L. The “CSF cGMP Mean” value ([3]; Part C, 50 mg, Day 13) was 4.620 µg/L, the “CSF cGMP Median” value ([3]; Part C, 50 mg, Day 13) was 4.265 µg/L and the “CSF cGMP % Change from Baseline Mean” value ([3]; Part C, 50 mg, Day 41) was 222.283%. For the same molecule, the “CSF cGMP % Change from Baseline Median” value ([3]; Part C, 50 mg, Day 41) was 182.044%, the “CSF cGMP Change from Baseline Mean” value ([3]; Part C, 50 mg, Day 41) was 3.097 µg/L and the “CSF cGMP Change from Baseline Median” value ([3]; Part C, 50 mg, Day 41) was 2.975 µg/L. For the same molecule, the “CSF cGMP Mean” value ([3]; Part C, 50 mg, Day 41) was 4.511 µg/L, the “CSF cGMP Median” value ([3]; Part C, 50 mg, Day 41) was 4.650 µg/L and the “Novel object exploration ratio in T2” value ([4]; 3.3 mg/kg oral) was 68.5 ± 2.0 %. The “Novel object exploration ratio in T2” value ([4]; 10 mg/kg oral) was 68.5 ± 1.6 %.
